Results: US6967205B1, “Compounds with antibacterial and antiparasitic properties” (New Pharma Research Sweden AB, priority 1999, dated 2005)
Values after ≈ are worked out from the molar mass of the structure shown.

Key:
Assay in all cases: M.I.C. by broth dilution method (NCCLS 1988), gram-positive bacteria
Type in all cases: cell-based
Streptococcus faecium = settings: Enterococcus faecium, in vitro broth dilution, read-out: M.I.C. values Streptoc. faecium
Protocol: (§1) The antibacterial activity of the present compounds was investigated by in vitro evaluation of their M.I.C. (Minimum Inhibitory Concentration) values. The evaluation was conducted in complete accordance with the “Broth dilution method”, as outlined by the U.S. National Committee for Clinical Laboratory Standards “NCCLS 1988”.
(§2) Solutions of the present compounds were prepared by dissolving 0.01 g of a test compound in either 10% KOH (aq) or a 10% KOH/DMF mixture, after which sterile, distilled H2O was added up to a total volume of 10 ml, thereby yielding a test compound concentration of 1 000 μg/ml.
(§3) In this evaluation, the antibacterial activity of the present compounds and enrofloxacin as reference compound was tested against seven strains of gram-positive bacteria, namely Bacillus subtilus (ATCC 6633), Bacillus cereus, Streptococcus faecium, Micrococcus Luteus (ATCC 9341), Staph. aureus (ATCC 29737), Staph. epidermidis (ATCC 12228) and Staphylococcus (ATCC 6538).

[1] = system: Micrococcus Luteus (ATCC 9341); settings: ATCC9341, in vitro broth dilution, read-out: M.I.C. values Microc. Luteus
Protocol: as §1, §2, §3

[2] = system: Staph. aureus (ATCC 29737); settings: Staphylococcus aureus, ATCC29737, in vitro broth dilution
Protocol: as §1, §2, §3

[3] = system: Staph. epidermidis (ATCC 12228); settings: Staphylococcus epidermidis, ATCC12228, in vitro broth dilution
Protocol: as §1, §2, §3

[4] = system: Staphylococcus (ATCC 6538); settings: ATCC6538, in vitro broth dilution, read-out: M.I.C. values Staph. (ATCC 6538)
Protocol: as §1, §2, §3

Bacillus cereus = settings: in vitro broth dilution
Protocol: as §1, §2, §3

[5] = system: Bacillus subtilus (ATCC 6633); settings: ATCC6633, in vitro broth dilution
Protocol: as §1, §2, §3

Structure (SMILES)	MIC (Streptococcus faecium) [µg/mL]	MIC [1] [µg/mL]	MIC [2] [µg/mL]	MIC [3] [µg/mL]	MIC [4] [µg/mL]	MIC (Bacillus cereus) [µg/mL]	MIC [5] [µg/mL]
O=C(O)c1cn(C2CC2)c2cc(NC3CCC(C(=O)O)CC3)c(F)cc2c1=O (stereo not shown) [JA 69, 7-[(4-carboxycyclohexyl)amino]-1-cyclopropyl-6-fluoro-4-oxo-1,4-dihydro-3-quinolinecarboxylic acid]	2 (≈ 5.15 µM)	2 (≈ 5.15 µM)	0.12 (≈ 0.309 µM)	0.12 (≈ 0.309 µM)	0.12 (≈ 0.309 µM)	0.06 (≈ 0.154 µM)	0.12 (≈ 0.309 µM)
O=C(O)c1cn(C2CC2)c2cc(N(CC3CCCO3)c3cncc(Cl)n3)c(F)cc2c1=O (stereo not shown) [JA 141, 7-[(6-chloro-2-pyrazinyl)(tetrahydro-2-furanylmethyl)amino]-1-cyclopropyl-6-fluoro-4-oxo-1,4-dihydro-3-quinolinecarboxylic acid]	1 (≈ 2.18 µM)	2 (≈ 4.36 µM)	0.25 (≈ 0.545 µM)	0.12 (≈ 0.262 µM)	0.12 (≈ 0.262 µM)	0.12 (≈ 0.262 µM)	0.12 (≈ 0.262 µM)
O=C(O)c1cn(C2CC2)c2cc(N(CC3CCCO3)c3cccc(Cl)n3)c(F)cc2c1=O (stereo not shown) [JA 143, 7-[(6-chloro-2-pyridinyl)(tetrahydro-2-furanylmethyl)amino]-1-cyclopropyl-6-fluoro-4-oxo-1,4-dihydro-3-quinolinecarboxylic acid]	1 (≈ 2.18 µM)	> 2	0.25 (≈ 0.546 µM)	0.12 (≈ 0.262 µM)	0.12 (≈ 0.262 µM)	0.12 (≈ 0.262 µM)	0.12 (≈ 0.262 µM)
O=C(O)c1cn(C2CC2)c2cc(N3CCN(c4cnccn4)CC3)c(F)cc2c1=O [JA 46, 1-cyclopropyl-6-fluoro-4-oxo-7-[4-(2-pyrazinyl)-1-piperazinyl]-1,4-dihydro-3-quinolinecarboxylic acid]	0.5 (≈ 1.22 µM)	1 (≈ 2.44 µM)	0.12 (≈ 0.293 µM)	0.12 (≈ 0.293 µM)	0.12 (≈ 0.293 µM)	0.06 (≈ 0.147 µM)	0.12 (≈ 0.293 µM)
O=C(O)c1cn(C2CC2)c2cc(N3CCN(S(=O)(=O)Cc4ccccc4)CC3)c(F)cc2c1=O [JA 9, 7-[4-(benzylsulfonyl)-1-piperazinyl]-1-cyclopropyl-6-fluoro-4-oxo-1,4-dihydro-3-quinolinecarboxylic acid]	1 (≈ 2.06 µM)	1 (≈ 2.06 µM)	≥ 0.12	0.12 (≈ 0.247 µM)	0.06 (≈ 0.124 µM)	0.25 (≈ 0.515 µM)	0.25 (≈ 0.515 µM)
CCn1cc(C(=O)O)c(=O)c2cc(F)c(N3CCN(S(=O)(=O)c4ccc(OC)cc4)CC3)cc21 [JA 21, 1-ethyl-6-fluoro-7-{4-[(4-methoxyphenyl)sulfonyl]-1-piperazinyl}-4-oxo-1,4-dihydro-3-quinolinecarboxylic acid]	0.5 (≈ 1.02 µM)	2 (≈ 4.09 µM)	0.25 (≈ 0.511 µM)	0.06 (≈ 0.123 µM)	0.06 (≈ 0.123 µM)	0.01 (≈ 0.0204 µM)	0.25 (≈ 0.511 µM)
COc1ccc(S(=O)(=O)N(CC2CCCO2)c2cc3c(cc2F)c(=O)c(C(=O)O)cn3C2CC2)cc1 (stereo not shown) [JA 135, 1-cyclopropyl-6-fluoro-7-[[(4-methoxyphenyl)sulfonyl](tetrahydro-2-furanylmethyl)amino]-4-oxo-1,4-dihydro-3-quinolinecarboxylic acid]	0.5 (≈ 0.968 µM)	2 (≈ 3.87 µM)	0.12 (≈ 0.232 µM)	0.12 (≈ 0.232 µM)	0.12 (≈ 0.232 µM)	0.06 (≈ 0.116 µM)	0.12 (≈ 0.232 µM)
Cc1ccc(S(=O)(=O)N2CCN(c3cc4c(cc3F)c(=O)c(C(=O)O)cn4C3CC3)CC2)cc1 [JA 2, 1-cyclopropyl-6-fluoro-7-{4-[(4-methylphenyl)sulfonyl]-1-piperazinyl}-4-oxo-1,4-dihydro-3-quinolinecarboxylic acid]	0.5 (≈ 1.03 µM)	0.5 (≈ 1.03 µM)	0.12 (≈ 0.247 µM)	0.06 (≈ 0.124 µM)	0.03 (≈ 0.0618 µM)	0.06 (≈ 0.124 µM)	0.12 (≈ 0.247 µM)
COCC(C)N(C(=O)CC(C)=O)c1cc2c(cc1F)c(=O)c(C(=O)O)cn2C1CC1 (stereo not shown) [JA 148, 7-[acetoacetyl(2-methoxy-1-methylethyl)amino]-1-cyclopropyl-6-fluoro-4-oxo-1,4-dihydro-3-quinolinecarboxylic acid]	1 (≈ 2.39 µM)	2 (≈ 4.78 µM)	0.12 (≈ 0.287 µM)	0.12 (≈ 0.287 µM)	0.12 (≈ 0.287 µM)	0.06 (≈ 0.143 µM)	0.12 (≈ 0.287 µM)
O=C(O)c1cn(C2CC2)c2cc(N(CC3CCCO3)S(=O)(=O)c3ccc4ccccc4c3)c(F)cc2c1=O (stereo not shown) [JA 136, 1-cyclopropyl-6-fluoro-7-[(2-naphthylsulfonyl)(tetrahydro-2-furanylmethyl)amino]-4-oxo-1,4-dihydro-3-quinolinecarboxylic acid]	0.5 (≈ 0.932 µM)	2 (≈ 3.73 µM)	0.12 (≈ 0.224 µM)	0.12 (≈ 0.224 µM)	0.12 (≈ 0.224 µM)	0.06 (≈ 0.112 µM)	0.12 (≈ 0.224 µM)
O=C(O)c1cn(C2CC2)c2cc(N(Cc3ccco3)C(=O)c3cccs3)c(F)cc2c1=O [JA 124, 1-cyclopropyl-6-fluoro-7[(2-furylmethyl)(2-thienylcarbonyl)amino]-4-oxo-1,4-dihydro-3-quinolinecarboxylic acid]	1 (≈ 2.21 µM)	2 (≈ 4.42 µM)	0.12 (≈ 0.265 µM)	0.12 (≈ 0.265 µM)	0.12 (≈ 0.265 µM)	0.12 (≈ 0.265 µM)	0.12 (≈ 0.265 µM)
O=C(O)c1cn(C2CC2)c2cc(N(CCN3CCCCC3)C(=O)c3cccs3)c(F)cc2c1=O [JA 128, 1-cyclopropyl-6-fluoro-4-oxo-7-[[2-(1-piperidinyl)ethyl]-(2-thienylcarbonyl)amino]-1,4-dihydro-3-quinolinecarboxylic acid]	1 (≈ 2.07 µM)	2 (≈ 4.14 µM)	0.12 (≈ 0.248 µM)	0.06 (≈ 0.124 µM)	0.12 (≈ 0.248 µM)	0.06 (≈ 0.124 µM)	0.12 (≈ 0.248 µM)
O=C(O)c1cn(C2CC2)c2cc(N3CCN(c4ccc(Br)cn4)CC3)c(F)cc2c1=O [JA 40, 7-[4-(5-bromo-2-pyridinyl)-1-piperazinyl]-1-cyclopropyl-6-fluoro-4-oxo-1,4-dihydro-3-quinolinecarboxylic acid]	1 (≈ 2.05 µM)	2 (≈ 4.1 µM)	0.25 (≈ 0.513 µM)	0.12 (≈ 0.246 µM)	0.06 (≈ 0.123 µM)	0.06 (≈ 0.123 µM)	0.12 (≈ 0.246 µM)
O=C(O)c1cn(C2CC2)c2cc(N(CCc3ccccn3)CC3CCCO3)c(F)cc2c1=O (stereo not shown) [JA 146, 1-cyclopropyl-6-fluoro-4-oxo-7-[[2-(2-pyridinyl)ethyl](tetrahydro-2-furanylmethyl)amino]-1,4-dihydro-3-quinolinecarboxylic acid]	1 (≈ 2.21 µM)	2 (≈ 4.43 µM)	0.12 (≈ 0.266 µM)	0.12 (≈ 0.266 µM)	0.12 (≈ 0.266 µM)	0.12 (≈ 0.266 µM)	0.12 (≈ 0.266 µM)
O=C(O)c1cn(C2CC2)c2cc(NCCN3CCCCC3)c(F)cc2c1=O [JA 76, 1-cyclopropyl-6-fluoro-4-oxo-7-{[2-(1-piperidinyl)ethyl]-amino}-1,4-dihydro-3-quinolinecarboxylic acid]	1 (≈ 2.68 µM)	2 (≈ 5.36 µM)	0.12 (≈ 0.321 µM)	0.12 (≈ 0.321 µM)	0.06 (≈ 0.161 µM)	0.12 (≈ 0.321 µM)	0.12 (≈ 0.321 µM)
O=C(O)c1cn(C2CC2)c2cc(N3CCN(c4cccc(Cl)c4S)CC3)c(F)cc2c1=O [JA 41, 7-[4-(3-chloro-2-sulfanylphenyl)-1-piperazinyl]-1-cyclopropyl-6-fluoro-4-oxo-1,4-dihydro-3-quinolinecarboxylic acid]	1 (≈ 2.11 µM)	2 (≈ 4.22 µM)	0.25 (≈ 0.527 µM)	0.25 (≈ 0.527 µM)	0.25 (≈ 0.527 µM)	0.25 (≈ 0.527 µM)	0.5 (≈ 1.05 µM)
O=C(O)c1cn(C2CC2)c2cc(N(CCc3ccncc3)CC3CCCO3)c(F)cc2c1=O (stereo not shown) [JA 145, 1-cyclopropyl-6-fluoro-4-oxo-7-[[2-(4-pyridinyl)ethyl](tetrahydro-2-furanylmethyl)amino]-1,4-dihydro-3-quinolinecarboxylic acid]	1 (≈ 2.21 µM)	2 (≈ 4.43 µM)	0.12 (≈ 0.266 µM)	0.12 (≈ 0.266 µM)	0.12 (≈ 0.266 µM)	0.12 (≈ 0.266 µM)	0.12 (≈ 0.266 µM)
CN(CCCN)CCCNc1cc2c(cc1F)c(=O)c(C(=O)O)cn2C1CC1 [JA 102, 7-({3-[(3-aminopropyl)(methyl)amino]propyl}amino)-1-cyclopropyl-6-fluoro-4-oxo-1,4-dihydro-3-quinolinecarboxylic acid]	1 (≈ 2.56 µM)	2 (≈ 5.12 µM)	0.06 (≈ 0.154 µM)	0.12 (≈ 0.307 µM)	0.12 (≈ 0.307 µM)	0.06 (≈ 0.154 µM)	0.12 (≈ 0.307 µM)
O=C(O)c1cn(C2CC2)c2cc(N(CC3CCCO3)S(=O)(=O)C(F)(F)F)c(F)cc2c1=O (stereo not shown) [JA 138, 1-cyclopropyl-6-fluoro-4-oxo-7-{(tetrahydro-2-furanylmethyl)[(trifluoromethyl)sulfonyl]amino}-1,4-dihydro-3-quinolinecarboxylic acid]	1 (≈ 2.09 µM)	2 (≈ 4.18 µM)	0.25 (≈ 0.523 µM)	0.12 (≈ 0.251 µM)	0.12 (≈ 0.251 µM)	0.06 (≈ 0.125 µM)	0.12 (≈ 0.251 µM)
